Values of other authors as cited in patent CN102028697A, “含非离子表面活性剂的拉坦前列素滴眼液及制备方法” (SHANGHAI SINE PHARMACEUTICAL CO Ltd, priority 2009, dated 2011).

Tests used:
[1] = in water

For `CC(C)OC(=O)CCC/C=C\C[C@@H]1[C@@H](CC[C@@H](O)CCc2ccccc2)[C@H](O)C[C@@H]1O` [拉坦前列素], the solubility [1] is listed as “几乎不溶” and the “permissible time at 40℃” value is listed as ≤ 8 days.
